Data as given in patent publication US12441754B2, “Galactoside inhibitor of galectins” (GALECTO BIOTECH AB, priority 2019, dated 2025).
Like-named read-outs stand apart in the source and are kept apart here.

Tests used:
Galectin-1 [1] = biological target: T1, Galectin-1 (Homo sapiens, UniProt P09382); conditions: T. Delaine 2016; read-out: affinity to Galectin-1; cited from earlier work
Galectin-1 [2] = biological target: T1, Galectin-1; test: fluorescence anisotropy assay, compound as inhibitor of galectin / fluorescein tagged saccharide probe interaction; format: binding; conditions: read-out: Galectin-1 Kd
Excerpt: (§1) Anal. Biochem. 334: 36-47, (Sörme et al., 2004) and Monovalent interactions of Galectin-1 By Salomonsson, Emma; Larumbe, Amaia; Tejler, Johan; Tullberg, Erik; Rydberg, Hanna; Sundin, Anders; Khabut, Areej; Frejd, Torbjorn; Lobsanov, Yuri D.; Rini, James M.; et al, From Biochemistry (2010), 49(44), 9518-9532, (Salomonsson et al., 2010).

Galectin-3 = Galectin-3 (Homo sapiens, UniProt P17931); test: as above; format: binding
Sequence of Galectin-3 (P17931 whole entry): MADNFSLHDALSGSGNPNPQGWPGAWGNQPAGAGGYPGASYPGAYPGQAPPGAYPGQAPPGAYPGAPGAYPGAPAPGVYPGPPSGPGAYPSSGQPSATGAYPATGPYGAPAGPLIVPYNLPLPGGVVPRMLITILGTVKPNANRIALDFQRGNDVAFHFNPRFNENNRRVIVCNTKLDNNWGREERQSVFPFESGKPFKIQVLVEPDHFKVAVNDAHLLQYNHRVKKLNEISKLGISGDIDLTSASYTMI
Excerpt: as §1

CACO-2 = CACO-2 model of uptake over the human intestine; format: in vitro ADME; conditions: result in words
Excerpt: (§2) For some compounds of this invention wherein R^1 of formula 1 is an alkylated hydroxy, for example —OCH3 high uptake and no efflux is observed in a CACO-2 model of uptake ver the human intestine. That predicts high likeliness of high human oral bioavailability.

[3] = CACO-2 model of uptake over the human intestine; format: in vitro ADME; conditions: human, Caco-2
Excerpt: as §2

T1 sequence (P09382 whole entry): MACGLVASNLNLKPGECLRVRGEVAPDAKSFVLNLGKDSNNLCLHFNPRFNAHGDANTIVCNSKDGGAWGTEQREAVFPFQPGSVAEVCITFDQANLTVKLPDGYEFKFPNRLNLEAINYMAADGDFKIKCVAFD

OCC1O[C@@H](SC2O[C@H](CO)C(O)C(n3cc(-c4ccsc4)nn3)[C@H]2O)C(O)C(n2cc(-c3ccsc3)nn2)[C@H]1O (stereo partly drawn)
Kd (Galectin-1 [1]): < 10 nM

CO[C@@H]1[C@@H](n2cc(-c3nccs3)nn2)[C@@H](O)[C@@H](CO)O[C@@H]1Sc1cc(Cl)c(F)c(Cl)c1 [Example 1, 3,5-Dichloro-4-fluorophenyl 3-deoxy-2-O-methyl-3-[4-(2-thiazolyl)-1H-1,2,3-triazol-1-yl]-1-thio-α-D-galactopyranoside]
Kd (Galectin-1 [2]): 175 nM
Kd (Galectin-3): 8000 nM
uptake and efflux in CACO-2 model (CACO-2): the uptake is very high and virtually no efflux is observed
Papp A→B ([3]; A>B, read-out: Papp from the apical to the basolateral side (A>B)): 20 ×10⁻⁶ cm/s
Papp B→A ([3]; B>A, read-out: Papp from the basolateral to the apical side B>A): 28 ×10⁻⁶ cm/s
